In ChEMBL document CHEMBL1150634, “New dimeric macrolide glycosides from the marine sponge Myriastra clavosa” (J Nat Prod, 2002):
The source made the active and inactive calls.

Experiments:
Assay type in all cases: functional, cell-based
COLO 205 = experiment: Cytotoxicity against human COLO205 cells at 10 ug/mL after 2 days by XTT assay
LOX = experiment: Cytotoxicity against human LOX cells at 10 ug/mL after 2 days by XTT assay
Malme-3M = experiment: Cytotoxicity against human MALME-3M cells at 10 ug/mL after 2 days by XTT assay
K562 = experiment: Cytotoxicity against human K562 cells at 10 ug/mL after 2 days by XTT assay
MOLT-4 = experiment: Cytotoxicity against human MOLT4 cells at 10 ug/mL after 2 days by XTT assay
A549 = experiment: Cytotoxicity against human A549 cells at 10 ug/mL after 2 days by XTT assay
NCI-H460 = experiment: Cytotoxicity against human H460 cells at 10 ug/mL after 2 days by XTT assay
OVACR3 = experiment: Cytotoxicity against […] at 10 ug/mL after 2 days by XTT assay
SNB-19 = experiment: Cytotoxicity against human SNB19 cells at 10 ug/mL after 2 days by XTT assay
MCF7 = experiment: Cytotoxicity against human MCF7 cells at 10 ug/mL after 2 days by XTT assay

Measured: Activity

CO[C@@H]1[C@@H](OC)[C@H](O[C@H]2C[C@H]3C[C@@H]([C@H]4C[C@@H]4C)OC(=O)C[C@@H]4O[C@@H](C[C@H](O[C@@H]5OC[C@@H](OC)[C@H](OC)[C@H]5OC)[C@H]4C)C[C@@H]([C@H]4C[C@@H]4C)OC(=O)C[C@H](O3)[C@@H]2C)OC[C@H]1O
inactive: COLO 205 | LOX | Malme-3M | K562 | MOLT-4 | A549 | NCI-H460 | OVACR3 | SNB-19 | MCF7
